Columns and labels:
[1] = system: IFN-β1 mRNA, normal PBMCs; test: Agonist induced IFN-β1 mRNA in PBMCs from healthy donors (qRT-PCR); format: cell-based, human; settings: LMW poly(I:C), serial dilutions
Text: (§1) To determine if inhibition of IKKε and/or TBK1 modulates nucleic acid agonist induced gene expression, high molecular weight poly(I:C) (MDA5 agonist) and low weight poly(I:C) (RIG-I agonist) were electroporated into human peripheral blood mononuclear cells (PBMCs) obtained from normal donors, or low molecular weight Poly(I:C) was electroporated into PBMCs from donors that have Systemic Lupus Erythematosus (SLE). Induction of IFN-α2, IFN-β, and BLyS mRNA production was monitored by qRT-PCR.
(§2) Human PBMCs were collected from healthy donors using routine laboratory procedures. PBMCs from SLE patients were purchased from Astarte Biologics (Redmond, Wash.). The PBMCs were electroporated using Nucleofector® Kit V (Lonza, Walkersville, Md.) with 0.4 ug/mL of high molecular weight poly (I:C) (InvivoGen, San Diego, Calif.) or 0.4 ug/mL low molecular weight poly (I:C) (InvivoGen, San Diego, Calif.) and seeded into wells containing serial dilutions of Example Compound 5 (0.1% final DMSO concentration). […] RNA was quantitated using Quant-iT™ RiboGreen® RNA Assay Kit (Invitrogen, Carlsbad, Calif.). Reverse transcription and real-time PCR were performed using the QuantiTect Probe RT-PCR Kit (Qiagen, Germantown, Md.) and the 7300 Real-Time PCR System (Applied Biosytems, Foster City, Calif.). […]

[2] = system: IP-10 production, human fibroblast-like synoviocytes (HFLS-RA); test: Inhibition of IP-10 production by HFLS-RA cells induced with Poly(I:C); format: cell-based; settings: Poly(I:C) induction
Protocol: (§3) HFLS cells (HFLS-RA) isolated from patients with rheumatoid arthritis were obtained from Cell Applications, Inc. (San Diego, Calif.). Cells were seeded in synoviocyte growth medium (Cell Applications, Inc., San Diego, Calif.) and allowed to grow overnight. The following day, media was replaced and cells were treated with varying concentrations of selected compounds according to Formula I (e.g., Example Compound 5) (0.1% final DMSO concentration). Two hours later, cells were induced with 50 µg/mL Poly(I:C) (Sigma-Aldrich, St. Louis, Mo.). Supernatants were collected 20 hours post-induction and used to monitor RANTES and IP-10 levels using DuoSet ELISA kits (Human CXCL10/IP-10 DuoSet & Human CCL5/RANTES DuoSet; R&D Systems, Inc., Minneapolis, Minn.).

[3] = system: IKKε-mediated phosphorylation of IRF3; test: In-situ phosphorylation of IRF3 (pIRF3 Ser396 ELISA) in HEK293T cells cotransfected with IRF3 and IKKε; format: cell-based; settings: Homo sapiens, HEK-293T; HEK293T cells, 20 hours, text bins; read-out: IC50 for inhibition of the in-situ IKKε-mediated phosphorylation of IRF3
Outline: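 Cells for the IRF7 Western blots carried IRF7 and TBK1 plasmids, were seeded at 150,000/well, exposed to compound overnight and probed for pSer477/Ser479 IRF7. The ELISA readout used IRF3 + IKKε-cotransfected HEK293T at 20,000/well with 20 h treatment, quantifying pSer396 IRF3 relative to DMSO, plus a parallel CellTiter-Glo viability check.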

[4] = system: insulin-stimulated glucose uptake, 3T3-L1 adipocytes; test: Glucose uptake assay using differentiated 3T3-L1 adipocytes; format: cell-based, Murine; settings: palmitic acid 48 hours
Protocol: To determine if IKK/TBK1 inhibitors prevent fatty acid induced insulin resistance in 3T3-L1 adipocytes, insulin-stimulated glucose uptake in the presence of compounds according to Formula I was monitored.
Murine 3T3-L1 cells were differentiated to adipocytes in 96-well plates by incubating for 2 days in adipogenic cocktail (10 ug/ml insulin, 115 ug/ml isobutylmethylxanthine, 1 uM dexamethasone) followed by incubation in insulin-supplemented medium for 2 days and complete media for an additional 5-10 days. Adipocytes were treated with BSA-complexed palmitic acid and a compound according to Formula I for 48 hours. Following free fatty acid treatment, adipoctyes were insulin-deprived in serum-free media for 2 hours. Subsequently, the media was replaced with KRH buffer containing a compound according to Formula I and 300 nM insulin for 15-20 minutes. [^14C]-labeled 2-deoxyglucose was then added for 15 minutes. Cells were thoroughly washed with ice-cold PBS, and intracellular [^14C]-2-deoxyglucose was measured in cell lysates by scintillation.

[5] = system: IFN-β1 mRNA, SLE PBMCs; test: Agonist induced IFN-β1 mRNA in PBMCs from SLE patients (qRT-PCR); format: cell-based, human; settings: LMW poly(I:C), serial dilutions
Text: as §1, §2

[6] = system: IFN-β production; test: Inhibition of IFN-β production (similar assay to HFLS-RA RANTES/IP-10); format: cell-based; settings: Homo sapiens
Protocol: as §3
Using a similar assay Compound 5 was also found to inhibit production of IFN-β with an IC50 of about 40 nM

[7] = system: TBK1-mediated phosphorylation of IRF7; test: In-situ TBK1-mediated phosphorylation of IRF7 in HEK293T cells transfected with IRF7 and TBK1 (Western blot); format: cell-based
Protocol: HEK293T cells were cotransfected in a 10-cm dish with IRF3 and IKKε expression plasmids using Lipofectamine 2000 (Invitrogen, Carlsbad, Calif.). The following day, cells were replated at 20,000 per well in 96-well plates and treated with test compounds (compounds according to Formula I) for 20 hours. Cell lysates were prepared and analyzed using an ELISA for phospho-Ser396 (anti-IRF3 capture antibody, Santa Cruz Biotechnology, Inc., Santa Cruz, Calif.; anti-p-Ser396 IRF3 detection antibody, Cell Signaling, Danvers, Mass.). pIRF3 levels in compound treated cells were normalized to DMSO treated cells (no compound). Cell viability was assayed in a parallel set of plates to monitor cytotoxic effects of the test compounds (CellTiter-Glo, Promega, Inc., Madison, Wis.). TBK1 activity was tested by Western blotting using a phospho-specific IRF7 antibody. Similar to above, HEK293T cells were transfected with IRF7 and TBK1 expression plasmids. Cells were seeded in 12-well plates at 150,000 per well and treated overnight with test compounds. Protein lysates were prepared and processed for Western blotting followed by detection using a phosphor-Ser477/Ser479 IRF7 antibody (BD Biosciences, San Jose, Calif.)

[8] = system: BLyS mRNA, normal PBMCs; test: Agonist induced BLyS mRNA in PBMCs from healthy donors (qRT-PCR); format: cell-based, human; settings: LMW poly(I:C), serial dilutions
Text: as §1, §2

[9] = system: IFN-α2 mRNA, SLE PBMCs; test: Agonist induced IFN-α2 mRNA in PBMCs from SLE patients (qRT-PCR); format: cell-based, human; settings: LMW poly(I:C), serial dilutions
Text: as §1, §2

[10] = system: IKKε-mediated phosphorylation of IRF7; test: In-situ IKKε-mediated phosphorylation of IRF7 in HEK293T cells (Western blot); format: cell-based
[11] = system: BLyS mRNA, SLE PBMCs; test: Agonist induced BLyS mRNA in PBMCs from SLE patients (qRT-PCR); format: cell-based, human; settings: LMW poly(I:C), serial dilutions
Text: as §1, §2

Q: With `N#Cc1cc(-c2ccnc(Nc3ccc(N4CCOCC4)cc3)n2)ccc1OC1CCOCC1` [Example 5, 5-(2-{[4-(Morpholin-4-yl)phenyl]amino}pyrimidin-4-yl)-2-(tetrahydro-2H-pyran-4-yloxy)benzaonitrile] as the compound, how does the “induction of IFN-β1 mRNA” value [1] read?
A: potently inhibited

Q: And the IC50 [2]?
A: ~60 nM

Q: And the IC50 [3]?
A: < 100 nM

Q: And the “effect on free fatty acid inhibition of insulin-stimulated glucose uptake” value [4]?
A: reverse the inhibitory effects of free fatty acid on insulin-stimulated glucose uptake

Q: What about the “induction of IFN-β1 mRNA” value [5] of the same compound?
A: potently inhibited

Q: And the IC50 [6]?
A: ~40 nM

Q: And the “inhibition of TBK1-mediated phosphorylation of IRF7” value [7]?
A: inhibit

Q: And the “induction of BLyS mRNA” value [8]?
A: potently inhibited

Q: And the “induction of IFN-α2 mRNA” value [9]?
A: potently inhibited

Q: And the “inhibition of IKKε-mediated phosphorylation of IRF7” value [10]?
A: inhibit

Q: And the “induction of BLyS mRNA” value [11]?
A: potently inhibited

From patent US20150352108A1, “AMINO-PYRIMIDINE COMPOUNDS AS INHIBITORS OF TBK1 AND/OR IKK EPSILON” (Alzheimer's Institute of America, priority 2009, published 2015)
